This passage reports remaining activity results from patent publication US20030134848A1, “Substituted 1-aza-2-imino-heterocycles and their use as nicotinic acetylcholin receptors activators” (priority 2000, published 2003).

Like-named read-outs stand apart in the source and are kept apart here.

In assay [1] the target is T1, α4β2 subtype of nicotinic acetylcholine receptors (Rattus norvegicus, UniProt P09483+P12390).
T1 construct: rat brain membrane obtained from whole homogenized brain; from tissue; host or cells: whole brain of Fischer-344 male rats, membrane fraction
The experiment in a line: Binding assay at α4β2 subtype of nicotinic acetylcholine receptors ([3H]-cytisine, rat brain membrane). To be noted: read-out: control % of [3H]-cytisine binding. From the text:
(§1) The methods for evaluating the binding capabilities of the compounds at nicotinic acetylcholine receptors are different by subtypes of receptors. The binding capabilities of the compounds at α4β2 nicotinic acetylcholine receptors are examined using rat brain membrane obtained from whole homogenized brain, and determining the inhibiting rate of the compounds against [^3H]-cytisine binding to said brain membrane. Furthermore, the binding capabilities of the compounds at α1β1γδ nicotinic acetylcholine receptors are examined using homogenized rat muscle, and determining the inhibiting rate of the compounds against [^3H]-α-bungarotoxin binding to said muscle homogenate.
The affinity of the compounds of the present invention to α4β2 subtype of nicotinic acetylcholine receptors was performed by the following method, which was modified method described by Pabreza L. A., Dhawan S. & Kellar K. J., Mol. Pharm., 39, 9-12 (1990), and by Anderson D. J. & Arneric S. P., Eur. J. Pharm., 253, 261-267 (1994).
(1) Preparation of Rat Brain Membrane Containing α4β2 Subtype of Nicotinic Acetylcholine Receptors
Fischer-344 strain male rats (body weight: 200-240 g; 9 weeks old) obtained from Charles River Japan were used. Rats were housed in the breeding cage controlled of the room temperature at 23±1° C., and the humidity of 55±5% for 1 to 4 weeks. Rats (3 to 4 rats per a cage) were housed with lights on for 12 hours daily (from 7:00 to 19:00), and allowed free access to food and water.
Preparation of rat brain membrane containing α4β2 subtype of nicotinic acetylcholine receptors was performed as follow. That is, rat brains were isolated just after sacrificed by decapitation, washed with ice-cooled saline solution and then frozen at −80° C. with liquid nitrogen and stored till using. After thawing the frozen brain, the brain was homogenized in 10 volumes of ice-cooled buffer solution (50 mM of Tris-HCl, 120 mM of NaCl, 5 mM of KCl, 1 mM of MgCl2, 2 mM of CaCl2; pH 7.4; 4° C.) using homogenizer (HG30, Hitachi Kohki Ltd.) for 30 seconds, and the homogenate were centrifuged under 1,000×G for 10 minutes at 4° C. The resulting supernatant was separated and the pellet was homogenized again with half volume of aforementioned prior buffer solution and centrifuged under the same conditions. Combined supernatant was further centrifuged under 40,000×G for 20 minutes at 4° C. The pellet was suspended in buffer solution and used for binding assays at receptors.
(2) Experiments of α4β2 Subtype of Nicotinic Acetylcholine Receptors Binding
Suspensions of membrane pellets containing 400-600 μg of protein were added to test tubes containing test compounds and [^3H]-cytisine (2 nM) in a final volume of 200 μl and incubated for 75 minutes in ice-cooled bath. The samples were isolated by vacuum filtration onto Whatman GF/B filters, which were prerinsed with 0.5% polyethylenimine just prior to sample filtration, using Brandel multi manifold cell harvester. The filters were rapidly washed with buffer solution (3×1 ml). The filters were counted in 3 ml of clearsol I (Nacalai Tesque Inc.).
The analyses of the experimental results were conducted by using the Accufit Competition Program (Beckman Ltd.).

Assay [2] has as its target α1β1γδ subtype of nicotinic acetylcholine receptors (Rattus norvegicus, UniProt P18916+P25108+P25110). The experiment in a line: biochemical. In kind it is binding. To be noted: read-out: control % of [3H]-α-Bgt binding.
Excerpt: as §1
The affinity of the compounds of the present invention to α1β1γδ subtype of nicotinic acetylcholine receptors was measured by the following method, which was modified method described by Garcha H. S., Thomas P., Spivak C. E., Wonnacott S. & Stolerman I. P., Psychropharmacology, 110, 347-354 (1993).
(1) Preparation of Rat Skeletal Muscles Containing α1β1γδ Subtype of Nicotinic Acetylcholine Receptors
The substantially same animals described in the Biological Experiment 1 were used.
The isolation of α1β1γδ subtype of nicotinic acetylcholine receptors was performed as follow. That is, rat posterior skeletal muscles were isolated just after sacrificed by decapitation, washed with ice-cooled saline solution and then frozen at −80° C. with liquid nitrogen and stored till using. After thawing the frozen muscles, tissue was homogenized (40% w/v) with buffer solution [2.5 mM of sodium phosphate buffer (pH:7.2), 90 mM of NaCl, 2 mM of KCl, 1 mM of EDTA, 2 mM of benzamidine, 0.1 mM of benzethonium chloride, 0.1 mM of PMSF, 0.01% of sodium azide] in Waring blender (Waring blender 34BL97; WARING PRODUCTS DIVISION DYNAMICS CORPORATION OF AMERICA) for 60 seconds. The homogenate were centrifuged under 20,000×G for 60 minutes at 4° C. The supernatant was separated and the resulting pellet was added to the same buffer (1.5 ml/g wet weight), and homogenized under the same conditions. Triton X100 (2% w/v) was added and the mixture was stirred for 3 hours at 4° C. The centrifugation at 100,000×G for 60 minutes at 4° C. yielded the rat muscle extract as supernatant. This was stored at 4° C. for up to 4 weeks, and used for binding assays at receptors.
(2) Experiments of α1β1γδ Subtype of Nicotinic Acetylcholine Receptors Binding
Receptors binding experiments were performed as follow. That is, the extract of rat muscle containing 600-900 μg of protein was added to test tubes containing test compounds and incubated for 15 minutes at 37° C. Then, to this mixture was added 1 nM of [^3H]-α-bungarotoxin (α-Bgt) and further incubated for 2 hours. The samples were isolated by vacuum filtration onto Whatman GF/B filters, which were prerinsed with 0.5% polyethylenimine just prior to sample filtration, using Brandel multi manifold cell harvester. The filters were rapidly rinsed with washing solution (10 mM of KH2PO4, 150 mM of NaCl, pH 7.2, room temperature) (5×1 ml). The filters were counted in 3 ml of clearsol I (Nacalai Tesque Inc.). The determination of nonspecific binding was incubated in the presence of 1 μM α-Bgt. The solutions containing α-Bgt (labeled/non-labeled) were prepared by using buffer solution containing 0.25% of BSA. In the receptor binding experiments, said buffer solution was added for adjusting the final concentration of BSA to be 0.05%.
The analyses of the experimental results were conducted by the same way as described in the Biological Experiment 1.

[3] abbreviates: 1 μM of test compound, rat brain membrane.
[4] abbreviates: 10 μM of test compound, rat brain membrane.

T1 sequence (P09483 31-630): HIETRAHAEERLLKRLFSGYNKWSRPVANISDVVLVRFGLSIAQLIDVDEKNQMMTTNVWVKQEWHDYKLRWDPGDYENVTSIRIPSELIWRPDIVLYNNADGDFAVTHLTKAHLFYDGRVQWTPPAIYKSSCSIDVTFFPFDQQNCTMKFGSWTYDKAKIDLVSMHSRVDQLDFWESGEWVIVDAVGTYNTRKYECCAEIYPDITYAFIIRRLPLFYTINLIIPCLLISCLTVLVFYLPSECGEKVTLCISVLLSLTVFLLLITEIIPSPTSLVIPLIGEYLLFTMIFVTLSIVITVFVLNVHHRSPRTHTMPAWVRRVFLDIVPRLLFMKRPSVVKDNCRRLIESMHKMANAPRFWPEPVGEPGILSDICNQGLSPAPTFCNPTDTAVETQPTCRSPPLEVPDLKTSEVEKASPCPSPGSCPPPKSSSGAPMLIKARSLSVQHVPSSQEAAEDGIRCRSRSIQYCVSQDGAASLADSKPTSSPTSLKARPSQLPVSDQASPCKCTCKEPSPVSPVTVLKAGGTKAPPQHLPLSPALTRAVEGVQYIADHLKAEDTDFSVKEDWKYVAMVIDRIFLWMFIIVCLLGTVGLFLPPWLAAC
T1 sequence (P12390 25-500): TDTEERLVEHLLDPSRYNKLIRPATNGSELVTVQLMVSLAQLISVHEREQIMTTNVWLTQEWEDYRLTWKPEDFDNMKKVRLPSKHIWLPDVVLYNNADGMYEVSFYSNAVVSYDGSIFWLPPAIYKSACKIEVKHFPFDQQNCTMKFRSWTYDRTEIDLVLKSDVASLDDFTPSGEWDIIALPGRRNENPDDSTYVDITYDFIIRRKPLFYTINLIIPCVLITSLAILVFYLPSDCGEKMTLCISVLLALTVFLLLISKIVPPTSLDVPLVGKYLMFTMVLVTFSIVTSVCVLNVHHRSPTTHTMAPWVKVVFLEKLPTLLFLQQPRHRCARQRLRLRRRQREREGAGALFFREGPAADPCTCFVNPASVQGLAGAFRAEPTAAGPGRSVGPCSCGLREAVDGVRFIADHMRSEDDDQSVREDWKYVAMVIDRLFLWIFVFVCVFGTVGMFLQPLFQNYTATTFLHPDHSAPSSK
α1β1γδ subtype of nicotinic acetylcholine receptors, sequence (P25109 24-501): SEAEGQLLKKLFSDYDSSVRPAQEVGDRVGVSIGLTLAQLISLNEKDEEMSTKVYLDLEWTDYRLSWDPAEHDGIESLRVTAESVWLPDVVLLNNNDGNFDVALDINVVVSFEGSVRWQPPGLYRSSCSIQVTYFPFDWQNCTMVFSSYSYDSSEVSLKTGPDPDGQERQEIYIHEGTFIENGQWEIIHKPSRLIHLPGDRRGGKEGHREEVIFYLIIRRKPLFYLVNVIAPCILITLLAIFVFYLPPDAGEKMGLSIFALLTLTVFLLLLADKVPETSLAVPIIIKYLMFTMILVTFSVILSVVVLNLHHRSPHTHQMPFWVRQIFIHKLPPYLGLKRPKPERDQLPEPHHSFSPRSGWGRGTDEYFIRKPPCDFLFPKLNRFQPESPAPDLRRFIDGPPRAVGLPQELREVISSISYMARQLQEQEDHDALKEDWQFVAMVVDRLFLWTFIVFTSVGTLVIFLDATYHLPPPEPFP
α1β1γδ subtype of nicotinic acetylcholine receptors, sequence (P25110 22-517): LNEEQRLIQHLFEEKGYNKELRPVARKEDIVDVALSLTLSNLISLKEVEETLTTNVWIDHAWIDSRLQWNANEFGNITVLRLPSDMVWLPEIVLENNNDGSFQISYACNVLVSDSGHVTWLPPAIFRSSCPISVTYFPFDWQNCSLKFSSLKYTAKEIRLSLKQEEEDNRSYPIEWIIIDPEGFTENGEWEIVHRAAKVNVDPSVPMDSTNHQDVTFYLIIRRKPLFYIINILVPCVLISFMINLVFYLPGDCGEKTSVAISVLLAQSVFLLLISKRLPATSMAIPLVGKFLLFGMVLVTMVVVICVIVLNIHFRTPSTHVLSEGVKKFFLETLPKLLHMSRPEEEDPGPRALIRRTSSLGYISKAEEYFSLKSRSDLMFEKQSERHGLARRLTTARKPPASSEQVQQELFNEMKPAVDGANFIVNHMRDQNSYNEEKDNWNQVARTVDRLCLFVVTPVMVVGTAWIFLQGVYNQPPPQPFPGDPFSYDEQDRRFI
α1β1γδ subtype of nicotinic acetylcholine receptors, sequence (P25108 21-457): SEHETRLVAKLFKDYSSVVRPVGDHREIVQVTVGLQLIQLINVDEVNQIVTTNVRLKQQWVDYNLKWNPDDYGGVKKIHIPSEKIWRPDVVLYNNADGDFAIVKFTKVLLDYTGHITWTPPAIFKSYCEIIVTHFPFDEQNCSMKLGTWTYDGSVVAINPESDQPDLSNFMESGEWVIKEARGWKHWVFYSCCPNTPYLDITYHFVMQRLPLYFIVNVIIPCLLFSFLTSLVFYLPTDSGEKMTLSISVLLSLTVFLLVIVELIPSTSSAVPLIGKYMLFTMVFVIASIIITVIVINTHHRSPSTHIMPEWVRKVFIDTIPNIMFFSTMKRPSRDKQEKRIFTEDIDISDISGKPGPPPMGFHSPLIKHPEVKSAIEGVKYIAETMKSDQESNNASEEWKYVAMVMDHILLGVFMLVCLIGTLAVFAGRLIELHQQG
α1β1γδ subtype of nicotinic acetylcholine receptors, sequence (P18916 23-519): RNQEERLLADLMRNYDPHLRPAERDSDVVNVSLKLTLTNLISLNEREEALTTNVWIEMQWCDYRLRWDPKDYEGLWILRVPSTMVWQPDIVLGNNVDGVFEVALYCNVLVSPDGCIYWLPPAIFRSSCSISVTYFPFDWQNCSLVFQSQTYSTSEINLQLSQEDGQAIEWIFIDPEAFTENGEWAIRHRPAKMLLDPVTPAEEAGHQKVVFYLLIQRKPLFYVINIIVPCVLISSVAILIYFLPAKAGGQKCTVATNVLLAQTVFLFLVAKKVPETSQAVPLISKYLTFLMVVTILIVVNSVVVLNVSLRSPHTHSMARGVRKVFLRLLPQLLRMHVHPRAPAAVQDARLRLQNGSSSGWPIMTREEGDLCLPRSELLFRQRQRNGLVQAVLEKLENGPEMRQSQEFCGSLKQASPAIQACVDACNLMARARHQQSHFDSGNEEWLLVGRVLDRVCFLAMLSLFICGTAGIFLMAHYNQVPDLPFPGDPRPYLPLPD

With `Nc1nccn1CCc1ccccc1Sc1ccc(O)cc1` [Compound 32, 2-amino-1-{2-[2-(4-hydroxyphenyl)thiophenyl]ethyl}-imidazole], in assay [1] (setting [3]), the remaining activity at 1 µM is 102%. Further, in assay [1] (setting [4]), the remaining activity at 10 µM was determined as 73%. In addition, in assay [2], the remaining activity at 100 µM turned out to be 107% and the remaining activity at 1000 µM was found to be 81%.

On to `COc1ccc(Sc2ccccc2CCn2ccnc2N)cc1` [Compound 33, 2-amino-1-{2-[2-(4-methoxyphenyl)thiophenyl]ethyl}-imidazole], for which the remaining activity at 1 µM in assay [1] (setting [3]) was found to be 111%. In addition, the remaining activity at 10 µM in assay [1] (setting [4]) turned out to be 92%. Also, in assay [2], the remaining activity at 100 µM turned out to be 119% and the remaining activity at 1000 µM is 85%.

Regarding `Nc1nccn1CCc1cncnc1Cl` [Compound 35, 2-amino-1-[2-(4-chloro-5-pyrimidyl)ethyl]imidazole], in assay [1], the remaining activity at 1 µM worked out at 61% and the remaining activity at 10 µM was found to be 17%. Moreover, in assay [2], the remaining activity at 100 µM came out at 87% and the remaining activity at 1000 µM was found to be 49%.
